Test results from patent US12215173B2, “Kappa opioid receptor peptide amide ligands” (priority 2019, dated 2025).
Where two headings read alike, the source gives them in different places. Square brackets hold non-standard residues; d marks the D form. Peptide text beside a SMILES is read from it. * marks the point of attachment. Piperidin1yl(4-NH2,4-CO2Me) = COC(=O)C1(N)CCN(*)CC1; Pyrrolidinyl(3-NH2,3-CO2Me) = COC(=O)C1(N)CCN(*)C1; Piperidin1yl(4-NH2,4-COOH) = NC1(C(=O)O)CCN(*)CC1; dAla(cPr) = N[C@H](CC1CC1)C(=O)O

Columns and labels:
[1] = biological target: recombinant human kappa (KOR) opioid receptor (Homo sapiens (Human), UniProt P41145); assay: biochemical; assay type: binding; settings: HEK293 cell membranes, 0.5 nM [3H]diprenorphine
[2] = biological target: Opioid Kappa Receptor (recombinant human, HEK293 cells) (Homo sapiens (Human), UniProt P41145); assay: cell-based; settings: read-out: EC50
[3] = biological target: recombinant human delta (DOR) opioid receptor (Homo sapiens (Human), UniProt P41143); assay: Opioid receptor radioligand binding assay, DOR
[4] = biological target: recombinant human mu (MOR) opioid receptor (Homo sapiens (Human), UniProt P35372); assay: Opioid receptor radioligand binding assay, MOR
[5] = HEK293 cell membranes, 0.5 nM [3H]DADLE, read-out: DOR, IC50
[6] = HEK293 cell membranes, 0.5 nM [3H]DAMGO, read-out: MOR, IC50

Chain of recombinant human delta (DOR) opioid receptor (P41143 whole entry, looked up): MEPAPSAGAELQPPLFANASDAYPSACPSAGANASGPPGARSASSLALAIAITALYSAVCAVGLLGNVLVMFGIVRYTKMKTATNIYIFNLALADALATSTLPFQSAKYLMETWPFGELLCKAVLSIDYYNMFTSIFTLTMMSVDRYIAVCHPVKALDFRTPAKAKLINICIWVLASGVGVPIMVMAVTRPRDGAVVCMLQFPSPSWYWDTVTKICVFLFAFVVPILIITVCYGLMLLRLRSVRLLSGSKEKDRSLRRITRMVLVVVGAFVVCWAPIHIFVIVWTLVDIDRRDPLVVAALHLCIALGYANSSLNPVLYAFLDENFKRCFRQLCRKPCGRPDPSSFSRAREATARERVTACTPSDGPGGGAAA

Compound | IC50 [1] | EC50 [2] | IC50 [3, 5] | IC50 [4, 6] | IC50 [3] | IC50 [4] | IC50 ([4]; read-out: MOR, IC50)
CC(C)C[C@@H](NC(=O)[C@@H](Cc1ccccc1)NC(=O)[C@H](N)Cc1ccccc1)C(=O)N[C@H](CCCCN)C(=O)N1CCOCCOCCOCC1 [Compound 13-15] | 0.00041 µM | 0.0515 µM | > 10 µM | > 10 µM |  |  | 
COCCNC(=O)[C@@H](CCCCN)NC(=O)[C@@H](CC(C)C)NC(=O)[C@@H](Cc1ccccc1)NC(=O)[C@H](N)Cc1ccccc1 [Compound 13-2] | 0.00137 µM | 0.00831 µM | > 10 µM | > 10 µM |  |  | 
CC(C)C[C@@H](NC(=O)[C@@H](Cc1ccccc1)NC(=O)[C@H](N)Cc1ccccc1)C(=O)N[C@H](CCCCN)C(=O)N1CC(=O)NC(=O)C1 [Compound 13-63] | 0.00181 µM | 0.0052 µM | > 10 µM | > 10 µM |  |  | 
CC(C)C[C@@H](NC(=O)[C@@H](Cc1ccccc1)NC(=O)[C@H](N)Cc1ccccc1)C(=O)N[C@H](CCCCN)C(=O)NC1CCN(C(=O)C(=O)N(C)C)CC1 [Compound 13-17] | 0.0234 µM | 0.022 µM | > 10 µM | > 10 µM |  |  | 
CC(C)C[C@@H](NC(=O)[C@@H](Cc1ccccc1)NC(=O)[C@H](N)Cc1ccccc1)C(=O)N[C@H](CCCCN)C(=O)N1CCC(NC(=O)[C@@H](N)CC(N)=O)CC1 [Compound 13-42] | 0.00048 µM | 0.00843 µM | > 10 µM | > 10 µM |  |  | 
CC(C)C[C@@H](NC(=O)[C@@H](Cc1ccccc1)NC(=O)[C@H](N)Cc1ccccc1)C(=O)N[C@H](CCCCN)C(=O)NCc1n[nH]c(=O)[nH]1 [Compound 13-45] | 0.00043 µM | 0.00153 µM |  |  | > 10 µM | > 10 µM | 
COC(=O)/C=C/C(=O)NC1CCN(C(=O)[C@@H](CCCCN)NC(=O)[C@@H](CC(C)C)NC(=O)[C@@H](Cc2ccccc2)NC(=O)[C@H](N)Cc2ccccc2)CC1 [Compound 13-19] | 0.00033 µM | 0.0758 µM | > 10 µM | > 0.727 µM |  |  | 
CC(C)C[C@@H](NC(=O)[C@@H](Cc1ccccc1)NC(=O)[C@H](N)Cc1ccccc1)C(=O)N[C@H](CCCCN)C(=O)N1CCC2(CC1)NC(=O)NC2=O [Compound 71] | 0.00016 µM | 0.0054 µM | > 10 µM |  |  |  | > 10 µM
COC(=O)C1(N)CCN(C(=O)[C@@H](CCCNC(=N)N)NC(=O)[C@@H](CC2CC2)NC(=O)[C@@H](Cc2ccccc2)NC(=O)[C@H](N)Cc2ccccc2)CC1 [Compound 126] (H-[dF][dF][dAla(cPr)][dR]-{Piperidin1yl(4-NH2,4-CO2Me)}) | 0.00036 µM | 0.00681 µM | > 10 µM | 3.03 µM |  |  | 
COC(=O)C1(N)CCN(C(=O)CNC(=O)[C@@H](CCCCN)NC(=O)[C@@H](CC(C)C)NC(=O)[C@@H](Cc2ccccc2)NC(=O)[C@H](N)Cc2ccccc2)CC1 [Compound 66] (H-[dF][dF][dL][dK]G-{Piperidin1yl(4-NH2,4-CO2Me)}) | 0.0209 µM | 0.0129 µM |  |  | > 10 µM | 0.307 µM | 
CC(C)C[C@@H](NC(=O)[C@@H](Cc1ccccc1)NC(=O)[C@H](N)Cc1ccccc1)C(=O)N[C@H](CCCCN)C(=O)N1CCN(C(=O)NC2CC2)CC1 [Compound 13-48] | 0.00036 µM | 0.00569 µM |  |  | > 10 µM | > 10 µM | 
CC(C)C[C@@H](NC(=O)[C@@H](Cc1ccccc1)NC(=O)[C@H](N)Cc1ccccc1)C(=O)N[C@H](CCCCN)C(=O)N1CCN(C(=O)C(=O)NC2CC2)CC1 [Compound 13-23] | 0.00079 µM | 0.00858 µM | > 10 µM | 0.318 µM |  |  | 
CC(C)C[C@@H](NC(=O)[C@@H](Cc1ccccc1)NC(=O)[C@H](N)Cc1ccccc1)C(=O)N[C@H](CCCCN)C(=O)NCc1cccnc1C(=O)O [Compound 13-7] | 0.0114 µM | 0.0247 µM |  |  | > 10 µM | > 10 µM | 
CC(C)C[C@@H](NC(=O)[C@@H](Cc1ccccc1)NC(=O)[C@H](N)Cc1ccccc1)C(=O)N[C@H](CCCCN)C(=O)NCc1ccc2c(c1)OCO2 [Compound 13-1] | 0.00196 µM | 0.0423 µM |  |  | > 10 µM | 2.08 µM | 
CCOC(=O)C1(N)CCN(C(=O)[C@@H](CCCCN)NC(=O)[C@@H](CC(C)C)NC(=O)[C@@H](Cc2ccccc2)NC(=O)[C@H](N)Cc2ccccc2)C1 (stereo partly drawn) [Compound 35] | 0.00019 µM | 0.0117 µM |  |  | > 10 µM | 8.18 µM | 
COC(=O)C(=O)NC1CCN(C(=O)[C@@H](CCCCN)NC(=O)[C@@H](CC(C)C)NC(=O)[C@@H](Cc2ccccc2)NC(=O)[C@H](N)Cc2ccccc2)CC1 [Compound 13-29] | 0.00029 µM | 0.0155 µM | > 10 µM | 0.00686 µM |  |  | 
CC(C)C[C@@H](NC(=O)[C@@H](Cc1ccccc1)NC(=O)[C@H](N)Cc1ccccc1)C(=O)N[C@H](CCCCN)C(=O)NCc1ccc(O)c(O)c1 [Compound 13-10] | 0.00067 µM | 0.0231 µM | > 10 µM | > 10 µM |  |  | 

Compound | IC50 [1] | EC50 [2] | IC50 [3, 5] | IC50 [4, 6] | IC50 [3] | IC50 [4] | IC50 ([4]; read-out: MOR, IC50)
CCOC(=O)C(=O)NC1CCN(C(=O)[C@@H](CCCCN)NC(=O)[C@@H](CC(C)C)NC(=O)[C@@H](Cc2ccccc2)NC(=O)[C@H](N)Cc2ccccc2)CC1 [Compound 13-31] | 0.00028 µM | 0.0179 µM | > 10 µM | 0.172 µM |  |  | 
COC(=O)[C@@H](N)CNC(=O)[C@@H](CCCCN)NC(=O)[C@@H](CC(C)C)NC(=O)[C@@H](Cc1ccccc1)NC(=O)[C@H](N)Cc1ccccc1 [Compound 13-12] | 0.0066 µM | 0.00707 µM | > 10 µM | > 10 µM |  |  | 
COC(=O)C1(N)CCN(C(=O)[C@@H](CCCCN)NC(=O)[C@@H](CC2CC2)NC(=O)[C@@H](Cc2ccccc2)NC(=O)[C@H](N)Cc2ccccc2)C1 (stereo partly drawn) [Compound 118] (H-[dF][dF][dAla(cPr)][dK]-{Pyrrolidinyl(3-NH2,3-CO2Me)}) | 0.00033 µM | 0.00931 µM | > 10 µM | > 10 µM |  |  | 
COCCOC(=O)C1(N)CCN(C(=O)[C@@H](CCCCN)NC(=O)[C@@H](CC(C)C)NC(=O)[C@@H](Cc2ccccc2)NC(=O)[C@H](N)Cc2ccccc2)C1 (stereo partly drawn) [Compound 45] | 0.00033 µM | 0.0302 µM | > 10 µM | 7.37 µM |  |  | 
CNC(=O)C(=O)NC1CCN(C(=O)[C@@H](CCCCN)NC(=O)[C@@H](CC(C)C)NC(=O)[C@@H](Cc2ccccc2)NC(=O)[C@H](N)Cc2ccccc2)CC1 [Compound 13-28] | 0.00026 µM | 0.0208 µM | > 10 µM | > 10 µM |  |  | 
COC(=O)/C=C/C(=O)N1CCN(C(=O)[C@@H](CCCCN)NC(=O)[C@@H](CC(C)C)NC(=O)[C@@H](Cc2ccccc2)NC(=O)[C@H](N)Cc2ccccc2)CC1 [Compound 13-24] | 0.00052 µM | 0.0315 µM | > 10 µM | 7.99 µM |  |  | 
CC(C)C[C@@H](NC(=O)[C@@H](Cc1ccccc1)NC(=O)[C@H](N)Cc1ccccc1)C(=O)N[C@H](CCCCN)C(=O)N1CCC(NC(=O)/C=C/C(=O)O)CC1 [Compound 13-20] | 0.00144 µM | 0.018 µM | > 10 µM | > 10 µM |  |  | 
CC(C)C[C@@H](NC(=O)[C@@H](Cc1ccccc1)NC(=O)[C@H](N)Cc1ccccc1)C(=O)N[C@H](CCCCN)C(=O)NCCOCCO [Compound 13-51] | 0.00027 µM | 0.00515 µM | > 10 µM | 0.349 µM |  |  | 
CC(C)C[C@@H](NC(=O)[C@@H](Cc1ccccc1)NC(=O)[C@H](N)Cc1ccccc1)C(=O)N[C@H](CCCCN)C(=O)N1CCC(N)(C(=O)OCCO)C1 (stereo partly drawn) [Compound 50] | 0.00039 µM | 0.00907 µM | > 10 µM | 7.53 µM |  |  | 
CCNC(=O)C(=O)NC1CCN(C(=O)[C@@H](CCCCN)NC(=O)[C@@H](CC(C)C)NC(=O)[C@@H](Cc2ccccc2)NC(=O)[C@H](N)Cc2ccccc2)CC1 [Compound 13-35] | 0.00031 µM | 0.0108 µM | > 10 µM | 8.43 µM |  |  | 
CC(C)C[C@@H](NC(=O)[C@@H](Cc1ccccc1)NC(=O)[C@H](N)Cc1ccccc1)C(=O)N[C@H](CCCCN)C(=O)NCC(=O)N1CCC(N)(C(=O)O)CC1 [Compound 67] (H-[dF][dF][dL][dK]G-{Piperidin1yl(4-NH2,4-COOH)}) | 0.0248 µM | 0.0515 µM |  |  | > 10 µM | 5.15 µM | 
COCCOCCOCCNC(=O)[C@@H](CCCCN)NC(=O)[C@@H](CC(C)C)NC(=O)[C@@H](Cc1ccccc1)NC(=O)[C@H](N)Cc1ccccc1 [Compound 13-5] | 0.00592 µM | 0.0158 µM | > 10 µM | > 10 µM |  |  | 
CNC(=O)C(=O)N1CCC(NC(=O)[C@@H](CCCCN)NC(=O)[C@@H](CC(C)C)NC(=O)[C@@H](Cc2ccccc2)NC(=O)[C@H](N)Cc2ccccc2)CC1 [Compound 13-32] | 0.00849 µM | 0.0265 µM |  |  | > 10 µM | 7.11 µM | 
CNC(=O)C(=O)N1CCN(C(=O)[C@@H](CCCCN)NC(=O)[C@@H](CC(C)C)NC(=O)[C@@H](Cc2ccccc2)NC(=O)[C@H](N)Cc2ccccc2)CC1 [Compound 13-27] | 0.00053 µM | 0.012 µM | > 10 µM | > 10 µM |  |  | 
CC(C)C[C@@H](NC(=O)[C@@H](Cc1ccccc1)NC(=O)[C@H](N)Cc1ccccc1)C(=O)N[C@H](CCCCN)C(=O)N1CCC(NC(=O)C[C@H](N)C(N)=O)CC1 [Compound 13-38] | 0.0003 µM | 0.00608 µM |  |  | > 10 µM | > 10 µM | 
CC(C)C[C@@H](NC(=O)[C@@H](Cc1ccccc1)NC(=O)[C@H](N)Cc1ccccc1)C(=O)N[C@H](CCCCN)C(=O)NCc1cc[nH]c(=O)c1 [Compound 13-9] | 0.00041 µM | 0.0181 µM | > 10 µM | > 10 µM |  |  | 
